Assay results reported in the supplement of paper PMC10307832.

How the values were obtained:
Assay in all cases: relative viability (nuclei count vs DMSO), 5 days (fraction); higher = more cells survive
A-427 = system: A-427
Procedure, shortened: (§1)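 Relative viability divides the nuclei count in treated wells by that in vehicle wells. Lung cancer cell lines were seeded in 1536-well plates, dosed by pin tool the next day, and fixed and stained after 5 days in one step with final 0.05% Triton X-100, 1% formaldehyde and 1 ug/ml Hoechst. Dosing was a single drug or a fixed anchor-drug dose plus five library-drug doses (not always all listed) in √10 steps, and values are medians of duplicate plates imaged at 4×.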

COR-L 105 = system: COR-L 105
Procedure, shortened: as §1

EPLC-272H = system: EPLC-272H
Procedure, shortened: as §1

HCC-366 = system: HCC-366
Procedure, shortened: as §1

HCC-78 = system: HCC-78
Procedure, shortened: as §1

HOP-62 = system: HOP-62
Procedure, shortened: as §1

LC-2-ad = system: LC-2-ad
Procedure, shortened: as §1

LCLC-97TM1 = system: LCLC-97TM1
Procedure, shortened: as §1

LU99A = system: LU99A
Procedure, shortened: as §1

LXF-289 = system: LXF-289
Procedure, shortened: as §1

NCI-H1755 = system: NCI-H1755
Procedure, shortened: as §1

NCI-H1793 = system: NCI-H1793
Procedure, shortened: as §1

NCI-H1915 = system: NCI-H1915
Procedure, shortened: as §1

NCI-H1944 = system: NCI-H1944
Procedure, shortened: as §1

NCI-H1975 = system: NCI-H1975
Procedure, shortened: as §1

NCI-H2085 = system: NCI-H2085
Procedure, shortened: as §1

NCI-H2170 = system: NCI-H2170
Procedure, shortened: as §1

NCI-H2342 = system: NCI-H2342
Procedure, shortened: as §1

NCI-H358 = system: NCI-H358
Procedure, shortened: as §1

NCI-H460 = system: NCI-H460
Procedure, shortened: as §1

SK-LU-1 = system: SK-LU-1
Procedure, shortened: as §1

SW 900 = system: SW 900
Procedure, shortened: as §1

UMC-11 = system: UMC-11
Procedure, shortened: as §1

`Clc1ccc(Nc2nnc(Cc3ccncc3)c3ccccc23)cc1` [Vatalanib] + COc1cc2c(Oc3ccc(NC(=O)C4(C(=O)Nc5ccc(F)cc5)CC4)cc3F)ccnc2cc1OCCCN1CCOCC1 [Foretinib] (partner 0.25 µM) gave a relative viability (A-427; first compound 0.04 µM) of 1.06, a relative viability (A-427; first compound 0.1265 µM) of 0.993 and a relative viability (A-427; first compound 0.4 µM) of 1.14. The relative viability (A-427; first compound 1.265 µM) was 0.993, the relative viability (A-427; first compound 4 µM) was 1.11 and the relative viability (COR-L 105; first compound 0.04 µM) was 0.885. It also gave a relative viability (COR-L 105; first compound 0.1265 µM) of 1.23, a relative viability (COR-L 105; first compound 0.4 µM) of 1.24 and a relative viability (COR-L 105; first compound 1.265 µM) of 0.785. For the same compound, the relative viability (COR-L 105; first compound 4 µM) was 1.12, the relative viability (EPLC-272H; first compound 0.04 µM) was 0.645 and the relative viability (EPLC-272H; first compound 0.1265 µM) was 0.711. The relative viability (EPLC-272H; first compound 0.4 µM) was 0.763, the relative viability (EPLC-272H; first compound 1.265 µM) was 0.669 and the relative viability (EPLC-272H; first compound 4 µM) was 0.841. It also gave a relative viability (HCC-366; first compound 0.04 µM) of 0.85, a relative viability (HCC-366; first compound 0.1265 µM) of 0.8 and a relative viability (HCC-366; first compound 0.4 µM) of 0.895. For the same compound, the relative viability (HCC-366; first compound 1.265 µM) was 0.885, the relative viability (HCC-366; first compound 4 µM) was 0.949 and the relative viability (HCC-78; first compound 0.04 µM) was 0.531. For the same compound, the relative viability (HCC-78; first compound 0.1265 µM) was 0.551, the relative viability (HCC-78; first compound 0.4 µM) was 0.535 and the relative viability (HCC-78; first compound 1.265 µM) was 0.503. It also gave a relative viability (HCC-78; first compound 4 µM) of 0.47, a relative viability (HOP-62; first compound 0.04 µM) of 1.16 and a relative viability (HOP-62; first compound 0.1265 µM) of 1.07. It also gave a relative viability (HOP-62; first compound 0.4 µM) of 1.13, a relative viability (HOP-62; first compound 1.265 µM) of 1.01 and a relative viability (HOP-62; first compound 4 µM) of 1.12. It also gave a relative viability (LC-2-ad; first compound 0.04 µM) of 0.999, a relative viability (LC-2-ad; first compound 0.1265 µM) of 0.777 and a relative viability (LC-2-ad; first compound 1.265 µM) of 0.852. It also gave a relative viability (LC-2-ad; first compound 4 µM) of 0.87, a relative viability (LCLC-97TM1; first compound 0.04 µM) of 0.975 and a relative viability (LCLC-97TM1; first compound 0.1265 µM) of 0.833. It also gave a relative viability (LCLC-97TM1; first compound 0.4 µM) of 1.01, a relative viability (LCLC-97TM1; first compound 1.265 µM) of 0.949 and a relative viability (LCLC-97TM1; first compound 4 µM) of 0.835. For the same compound, the relative viability (LU99A; first compound 0.04 µM) was 0.809, the relative viability (LU99A; first compound 0.1265 µM) was 0.842 and the relative viability (LU99A; first compound 0.4 µM) was 0.917. It also gave a relative viability (LU99A; first compound 1.265 µM) of 0.75, a relative viability (LU99A; first compound 4 µM) of 0.848 and a relative viability (LXF-289; first compound 0.04 µM) of 0.97. It also gave a relative viability (LXF-289; first compound 0.1265 µM) of 0.966, a relative viability (LXF-289; first compound 0.4 µM) of 0.98 and a relative viability (LXF-289; first compound 1.265 µM) of 0.945. The relative viability (LXF-289; first compound 4 µM) was 0.931, the relative viability (NCI-H1755; first compound 0.04 µM) was 0.88 and the relative viability (NCI-H1755; first compound 0.1265 µM) was 0.964. It also gave a relative viability (NCI-H1755; first compound 0.4 µM) of 0.954, a relative viability (NCI-H1755; first compound 1.265 µM) of 0.905 and a relative viability (NCI-H1755; first compound 4 µM) of 0.846. The relative viability (NCI-H1793; first compound 0.04 µM) was 0.769, the relative viability (NCI-H1793; first compound 0.1265 µM) was 0.787 and the relative viability (NCI-H1793; first compound 0.4 µM) was 0.686. It also gave a relative viability (NCI-H1793; first compound 1.265 µM) of 0.663, a relative viability (NCI-H1793; first compound 4 µM) of 0.608 and a relative viability (NCI-H1915; first compound 0.04 µM) of 1.09. The relative viability (NCI-H1915; first compound 0.1265 µM) was 1.04, the relative viability (NCI-H1915; first compound 0.4 µM) was 1.11 and the relative viability (NCI-H1915; first compound 1.265 µM) was 1.05. The relative viability (NCI-H1915; first compound 4 µM) was 1.13, the relative viability (NCI-H1944; first compound 0.04 µM) was 0.934 and the relative viability (NCI-H1944; first compound 0.1265 µM) was 0.891. It also gave a relative viability (NCI-H1944; first compound 0.4 µM) of 0.936, a relative viability (NCI-H1944; first compound 1.265 µM) of 0.892 and a relative viability (NCI-H1944; first compound 4 µM) of 0.87. For the same compound, the relative viability (NCI-H1975; first compound 0.04 µM) was 0.968, the relative viability (NCI-H1975; first compound 0.1265 µM) was 0.885 and the relative viability (NCI-H1975; first compound 0.4 µM) was 0.953. It also gave a relative viability (NCI-H1975; first compound 1.265 µM) of 0.866, a relative viability (NCI-H1975; first compound 4 µM) of 0.832 and a relative viability (NCI-H2085; first compound 0.04 µM) of 1.07. It also gave a relative viability (NCI-H2085; first compound 0.1265 µM) of 0.879, a relative viability (NCI-H2085; first compound 0.4 µM) of 0.854 and a relative viability (NCI-H2085; first compound 1.265 µM) of 0.996. The relative viability (NCI-H2085; first compound 4 µM) was 0.818, the relative viability (NCI-H2170; first compound 0.04 µM) was 1.03 and the relative viability (NCI-H2170; first compound 0.1265 µM) was 1.09. It also gave a relative viability (NCI-H2170; first compound 0.4 µM) of 1.04, a relative viability (NCI-H2170; first compound 1.265 µM) of 0.978 and a relative viability (NCI-H2170; first compound 4 µM) of 1.02. For the same compound, the relative viability (NCI-H2342; first compound 0.04 µM) was 1.08, the relative viability (NCI-H2342; first compound 0.1265 µM) was 1.03 and the relative viability (NCI-H2342; first compound 0.4 µM) was 1.08. The relative viability (NCI-H2342; first compound 1.265 µM) was 1.16, the relative viability (NCI-H2342; first compound 4 µM) was 1.05 and the relative viability (NCI-H358; first compound 0.04 µM) was 1.15. It also gave a relative viability (NCI-H358; first compound 0.1265 µM) of 0.568, a relative viability (NCI-H358; first compound 0.4 µM) of 0.533 and a relative viability (NCI-H358; first compound 1.265 µM) of 0.718. It also gave a relative viability (NCI-H358; first compound 4 µM) of 0.621, a relative viability (NCI-H460; first compound 0.04 µM) of 1.11 and a relative viability (NCI-H460; first compound 0.1265 µM) of 0.894. For the same compound, the relative viability (NCI-H460; first compound 0.4 µM) was 0.93, the relative viability (NCI-H460; first compound 1.265 µM) was 0.934 and the relative viability (NCI-H460; first compound 4 µM) was 1.06. The relative viability (SK-LU-1; first compound 0.04 µM) was 0.807, the relative viability (SK-LU-1; first compound 0.1265 µM) was 0.741 and the relative viability (SK-LU-1; first compound 0.4 µM) was 0.979. For the same compound, the relative viability (SK-LU-1; first compound 1.265 µM) was 0.877, the relative viability (SK-LU-1; first compound 4 µM) was 0.809 and the relative viability (SW 900; first compound 0.1265 µM) was 0.761. It also gave a relative viability (SW 900; first compound 0.4 µM) of 0.942, a relative viability (SW 900; first compound 1.265 µM) of 0.922 and a relative viability (SW 900; first compound 4 µM) of 0.918. For the same compound, the relative viability (UMC-11; first compound 0.04 µM) was 1.12, the relative viability (UMC-11; first compound 0.1265 µM) was 0.94 and the relative viability (UMC-11; first compound 0.4 µM) was 0.916. For the same compound, the relative viability (UMC-11; first compound 1.265 µM) was 0.94 and the relative viability (UMC-11; first compound 4 µM) was 1.02.
